Earlier results as cited in US8657943B2, “1-hydroxy-2-O-acyl-sn-glycero-3-phosphocholine compounds, preparation process, antifouling composition, process for its preparation, method to prevent fouling, method to turn a surface into an antifouling surface, and, covered surface” (UFRJ, IEAPM, UFF, priority 2010, dated 2014).

Assays:
different cell types = conditions: very low concentrations
mussels = conditions: concentrations of up to 100 ng/L in seawater
Ostrea edulis = conditions: 75 days exposure, 0.24 μg/L

Substance | concentrations that trigger physiological responses (different cell types) | effect on the growth of mussels (mussels) | larval production (Ostrea edulis) | sex change male to female (Ostrea edulis)
1-O-alkyl-2-acetyl-sn-glycero-3-phosphocholine [platelet activating factor] | 10^−12 to 10^−9 M |  |  | 
tri-butyl tin [TBT] |  | significant reductions in the growth of mussels | completely inhibited | a delay in changing sex male to female was observed
